According to patent US10233184B2, “7-substituted sulfonimidoylpurinone compounds and derivatives for the treatment and prophylaxis of virus infection” (Hoffmann-La Roche Inc., priority 2016, dated 2019):
Read-outs that look alike come from different tables or passages of the source.

How the values were obtained:
[1] = LYSA solubility study; assay type: physicochemical; conditions: aqueous solubility, 0.05M phosphate buffer pH 6.5
Summary of the method: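 Samples from 10 mM DMSO stock were dried, redissolved in 0.05M phosphate buffer pH 6.5, stirred 1 h, shaken 2 h, left overnight and filtered. Filtrate and 1/10 dilution quantified by HPLC-UV; solubility in μg/mL, reported as greater-than when >80% of the maximum sample amount was in solution.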

[2] = Portal vein study: oral PK in PVC/CAC dual cannulated rat; assay type: in vivo; conditions: prodrug 10 mg/kg oral, analyte prodrug
Description: Surgery was performed under pentobarbital/isoflurane anesthesia. Briefly, after disinfecting the abdominal area with betadine and 70% isopropyl alcohol, a small abdominal mid-line incision was made. The cecum was pulled out and mesenteric vein was identified and isolated for about 5 mm vessel. A loose ligature was placed proximally and distal end of the vein was ligated. Make a small incision (just enough to allow the insertion of the catheter) on isolated vein and insert the PU catheter towards liver for appropriate length. The catheter was secured in place by tying the loose ligature around the cannulated vessel. The cecum was replaced into abdominal cavity. A hole was made in the right abdominal wall to make the end of catheter pass freely. The catheter was secured by suture on the abdominal wall. The abdominal muscle incision was closed with suture. A small incision was made in the scapular area to serve as the exit site of the catheter. The catheter was subcutaneously tunneled and exteriorized through the scapular incision. A fixed suture was placed in the scapular region. The patency of the catheter was checked and then exteriorized from the subcutaneous space to the dorsal neck region. After gently wiping the area, the abdominal cavity was sutured. The left carotid artery was then cannulated by inserting a PESO catheter. Both the exteriorized catheters were tied firmly on the dorsal neck region and fixed. The animals was then allowed to recover in its cage and used for study at least 3 days after surgery. All catheters were flushed once daily with heparinized saline to maintain patency. Animals were fasted overnight (n=3) and administered vial oral gavage (10 mg/kg, 10 mL/kg). Blood samples (60 μL) were collected simultaneously from the portal and carotid artery catheters at 0.083, 0.25, 0.5, 1, 2, 4, 7, 24 h. All blood samples will be transferred into microcentrifuge tubes containing 2 μL of K2EDTA (0.5M) as anti-coagulant and placed on wet ice. Then blood samples will be processed for plasma by centrifugation at approximately 4° C., 3000 g within half an hour of collection. Plasma samples will be stored in polypropylene tubes, quick frozen over dry ice and kept at −70±10° C. until LC/MS/MS analysis. Pharmacokinetic parameters (mean±SD, n=3) of prodrugs and active forms in portal and carotid samples following oral administration of prodrugs (10 mg/kg) in portal vein cannulated rat were detected and analyzed.

[3] = biological target: T1, human TLR7 (Homo sapiens, UniProt Q9NYK1); test: HEK293-Blue-hTLR-7 cells assay (SEAP reporter); assay type: cell-based
T1 sequence (Q9NYK1 27-1049): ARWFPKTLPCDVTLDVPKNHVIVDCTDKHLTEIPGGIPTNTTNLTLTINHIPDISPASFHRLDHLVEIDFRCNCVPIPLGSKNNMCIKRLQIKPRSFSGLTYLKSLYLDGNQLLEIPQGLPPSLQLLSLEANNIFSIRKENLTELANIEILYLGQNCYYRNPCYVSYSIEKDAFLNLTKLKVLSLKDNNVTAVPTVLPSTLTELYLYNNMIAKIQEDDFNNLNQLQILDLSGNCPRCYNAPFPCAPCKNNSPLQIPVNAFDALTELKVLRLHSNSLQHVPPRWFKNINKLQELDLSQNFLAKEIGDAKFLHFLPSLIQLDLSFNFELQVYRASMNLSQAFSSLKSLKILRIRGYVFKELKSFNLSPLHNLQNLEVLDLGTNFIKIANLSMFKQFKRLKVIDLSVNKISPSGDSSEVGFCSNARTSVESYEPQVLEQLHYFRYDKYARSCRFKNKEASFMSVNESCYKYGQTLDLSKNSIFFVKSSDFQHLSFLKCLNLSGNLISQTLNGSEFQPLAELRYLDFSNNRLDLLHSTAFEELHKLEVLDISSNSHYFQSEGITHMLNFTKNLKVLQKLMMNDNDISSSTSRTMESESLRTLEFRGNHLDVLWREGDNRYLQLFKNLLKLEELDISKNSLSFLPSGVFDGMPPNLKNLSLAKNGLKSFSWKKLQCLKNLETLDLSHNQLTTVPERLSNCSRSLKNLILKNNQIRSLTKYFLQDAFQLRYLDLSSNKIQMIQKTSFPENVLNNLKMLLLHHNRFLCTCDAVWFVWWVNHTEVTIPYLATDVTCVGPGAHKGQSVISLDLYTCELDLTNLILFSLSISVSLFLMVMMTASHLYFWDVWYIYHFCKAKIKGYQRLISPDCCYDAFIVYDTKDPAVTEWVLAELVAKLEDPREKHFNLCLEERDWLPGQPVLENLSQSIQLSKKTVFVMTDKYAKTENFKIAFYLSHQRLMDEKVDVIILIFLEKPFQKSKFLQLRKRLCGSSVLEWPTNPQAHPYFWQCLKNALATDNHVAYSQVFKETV
Summary of the method: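 HEK293-Blue-hTLR7 cells with NF-κB/AP-1-driven SEAP reporter exposed to serially diluted compound (1% DMSO) for 20 hrs at 37° C. Supernatant SEAP measured with QUANTI-Blue after 2 hrs at 37° C, absorbance 620~655 nm; agonism expressed as EC50.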

[4] = Single dose PK study in male Wister-Han rats; assay type: in vivo; conditions: male, Wister-Han, rat, plasma, po, 5 mg/kg, 5 mg/kg oral dosing of active form
[5] = phase Ib, patients with chronic hepatitis B; cited from earlier work

Structure (SMILES) | LYSA of Prodrugs [1] [µg/mL] | AUC(0-t) ([2]; carotid artery plasma, read-out: AUC0-2 (nM · h), prodrug, Carotid sampling) [µM·h] | Cmax ([2]; carotid artery plasma, read-out: Cmax (nM), prodrug, Carotid sampling) [nM] | Tmax ([2]; carotid artery plasma, read-out: Tmax (h), prodrug, Carotid sampling) [h] | AUC(0-t) ([2]; portal vein plasma, read-out: AUC0-2 (nM · h), prodrug, Portal sampling) [µM·h] | Cmax ([2]; portal vein plasma, read-out: Cmax (nM), prodrug, Portal sampling) [nM] | Tmax ([2]; portal vein plasma, read-out: Tmax (h), prodrug, Portal sampling) [h] | Ratio (EC50(prodrug)/EC50(active form)) ([3]; EC50 of prodrug over EC50 of corresponding active form) | EC50 ([3]; HEK293-Blue-hTLR-7 cells, SEAP reporter, 20 hrs, prodrug, read-out: HEK293-hTLR-7 EC50 (Prodrug)) [µM] | AUC(0-t) [4] [µM·h] | Cmax [4] [nM] | concentration at 0.25 h ([4]; 0.25 h) [nM] | concentration at 0.5 h ([4]; 0.5 h) [nM] | concentration at 1 h ([4]; 1 h) [nM] | concentration at 2 h ([4]; 2 h) [nM] | concentration at 4 h ([4]; 4 h) [nM] | concentration at 8 h ([4]; 8 h) [nM] | ISG15 mRNA induction [5] | safety and tolerability [5]
CCCN(C)C(=O)n1c(=O)n(Cc2ccccc2)c2nc(S(=N)(=O)CCC)nc(N)c21 (single isomer, unassigned) [Example 1-B] | 200 | 0.04 | 70 | 0.083 | 0.266 | 670 | 0.083 | 314.0 | 27 |  |  |  |  |  |  |  |  |  | 
CCCCOc1nc(N)c2c(n1)N(Cc1cccc(CN3CCCC3)c1)CC(=O)N2 [GS9620, reference compound] |  |  |  |  |  |  |  |  |  | 0.316 | 164 | 56.3 | 33.2 | 83.4 | 136 | 16.7 | 9.49 | dose-dependent ISG15 mRNA induction | safe, well tolerated
